# From patent EP3150203B1, “COMPOUNDS WITH (1E,6E)-1,7-BIS-(3,4- DIMETHOXYPHENYL)-4,4-DISSTITUTED-HEPA-1,6-DIENE-3,5-DI-ONE STRUCTURAL SCAFFOLD,THEIR BIOLOGICAL ACTIVITY, AND USES THEREOF” (Allianz Pharmascience Ltd, priority 2012, dated 2013)
# Substitutions are numbered along the chain they refer to. pIC50: −log10 of the molar value.
# How the values were obtained:
# [1] = tested on: CWR22Rv1 cells (human prostate cancer); test: MTT cell growth assay, CWR22Rv1 cells; type: cell-based; settings: Homo sapiens, 120 h, 5 days, read-out: Inhibition of Tumor cells growth IC50
# Experimental: The MTT cell proliferation assay was applied in the present invention to detect the capability of compounds to suppress or inhibit prostate cancer cells growth. […] Briefly, 1 x 10^3 LNCaP or CWR22Rv1 cells suspended in complete medium were plated into each well of a 96-well Microtest III tissue culture plate (Falcon, NJ). Two days later, the medium was replaced with RPMI-1640 medium containing 10% charcoal/dextran-deprived FBS (hormone-deprived fetal bovine serum). Testing compounds were added to the medium at indicated concentrations with or without 1 nM DHT and cells were cultured for 5 days in an incubator (at 37 °C). MTT substrate solution (5 mg/ml in PBS) in 1/10 of volume was added to the cells in each well at 2 hours before harvesting. After 2 hour incubation, the plates were centrifuged (10 min at 1,000 rpm) and the supernatant from each well was carefully removed. A 100 µl of lysis buffer (50% dimethyl formamide, 5% sodium dodecyl sulphate, 0.35 M acetic acid, and 50 mM HCl) was added to each well to lyse the cells and dissolved tetrazolium in each well. The relative quantity of enzyme activity from each well was measured based on absorbance read at a wavelength of 450 nm using a Bio-RAD BenchMark microplate reader. Data derived from the MTT assay were also verified by the actual cell count and cell morphology on a separate plate set up in parallel.
# For inhibition of tumor cell growth, in vitro, cells were growth in the presence of testing compounds for 5 days, and the cell growth was assayed by standard MTT assay. […] Table 2: Biological activity of Compounds and Derivatives having (1E, 6E)-1,7-bis-(3,4-dimethoxyphenyl)-4,4-disubstituted-hepta-1,6-diene-3,5-dione OR (1E, 10E)-1,11-bis(substituted phenyl)- 6,6-disubstituted undeca-1,3,8,10-tetraene-5,7-dione structural scaffold
# AR protein = target: T1, AR protein (Homo sapiens, UniProt P10275, T878A); test: Cycloheximide chasing assay of AR degradation in LNCaP cells; type: cell-based; settings: in the presence of cycloheximide (CHX) (FIG. 7)
# T1 sequence (P10275 1-920 T878A): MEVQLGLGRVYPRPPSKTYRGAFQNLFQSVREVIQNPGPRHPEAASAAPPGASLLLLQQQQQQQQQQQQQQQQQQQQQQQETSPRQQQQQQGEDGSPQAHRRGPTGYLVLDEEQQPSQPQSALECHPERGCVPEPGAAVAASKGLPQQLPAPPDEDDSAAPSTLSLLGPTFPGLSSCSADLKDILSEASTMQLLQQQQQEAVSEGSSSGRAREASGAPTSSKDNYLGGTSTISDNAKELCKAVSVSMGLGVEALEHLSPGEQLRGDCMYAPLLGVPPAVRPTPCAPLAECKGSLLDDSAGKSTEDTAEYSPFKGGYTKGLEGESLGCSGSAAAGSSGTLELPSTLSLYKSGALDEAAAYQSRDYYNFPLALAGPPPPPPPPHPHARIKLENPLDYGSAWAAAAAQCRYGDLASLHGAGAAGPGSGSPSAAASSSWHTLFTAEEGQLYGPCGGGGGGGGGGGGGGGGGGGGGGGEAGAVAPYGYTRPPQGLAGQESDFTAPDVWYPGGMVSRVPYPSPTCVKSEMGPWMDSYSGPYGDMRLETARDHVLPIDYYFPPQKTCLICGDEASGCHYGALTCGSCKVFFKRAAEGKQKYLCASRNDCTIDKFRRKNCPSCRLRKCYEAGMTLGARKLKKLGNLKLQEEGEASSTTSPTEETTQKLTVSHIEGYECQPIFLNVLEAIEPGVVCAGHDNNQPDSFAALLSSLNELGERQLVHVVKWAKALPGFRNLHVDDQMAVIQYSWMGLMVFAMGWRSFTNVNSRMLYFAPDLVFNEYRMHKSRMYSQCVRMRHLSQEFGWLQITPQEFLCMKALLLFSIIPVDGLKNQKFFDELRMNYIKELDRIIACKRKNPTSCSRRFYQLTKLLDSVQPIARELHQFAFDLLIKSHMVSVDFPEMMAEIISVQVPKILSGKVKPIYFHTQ
# Experimental: AR protein "degradation" in prostate cancer cells was measured by using cycloheximide (a protein synthesis inhibitor) chasing assay method. Briefly, LNCaP cells were incubated with testing ASC compound at the designated concentrations for 24 hours. Subsequently, cycloheximide was added to the cells at a concentration of 15 µg/ml to block new protein synthesis. After incubation, cells were harvested at designated time periods and the resultant change in AR protein levels were analysed using Western Blot analysis as described above.
# Androgen Receptor (AR) [2] = target: T2, Androgen Receptor (AR) (Homo sapiens, UniProt P10275, T878A); test: Western Blot analysis of AR protein expression in LNCaP cells; settings: various concentrations, Western Blot (FIG. 6)
# T2 sequence (P10275 1-920 T878A): T1 sequence (P10275 1-920 T878A)
# Androgen Receptor (AR) [3] = target: T3, Androgen Receptor (AR) (Homo sapiens, UniProt P10275, H875Y, form not given); test: Western Blot analysis of AR protein expression in CWR22Rv1 cells; type: cell-based; settings: various concentrations, Western Blot (FIG. 6)
# T3 sequence (P10275 1-920 H875Y): T1 sequence (P10275 1-920 T878A) with H875Y, A878T
structure (smiles),measurement,setting,value
"COc1ccc(C=CC(=O)C=C(O)C=Cc2ccc(OC)c(OC)c2)cc1OC [ASC-J9®, 1,7-Bis-(3,4-dimethoxy-phenyl)-5-hydroxy-hepta-1,4,6-trien-3-one, reference compound]",pIC50,[1],5.40
same,AR protein degradation,AR protein,enhances AR protein degradation
COc1ccc(/C=C/C(=O)C(C(=O)/C=C/c2ccc(OC)c(OC)c2)=C(O)/C=C/c2ccc(OC)c(OC)c2)cc1OC [ASC-JM4],reducing endogenous AR expression,Androgen Receptor (AR) [2],capable of reducing endogenous AR expression
same,reducing endogenous AR expression,Androgen Receptor (AR) [3],capable of reducing endogenous AR expression
COc1ccc(/C=C/C(=O)C2CC(c3ccc(OC)c(OC)c3)(C(C(=O)/C=C/c3ccc(OC)c(OC)c3)C(=O)/C=C/c3ccc(OC)c(OC)c3)CC2=O)cc1OC (centres unmarked) [ASC-JM5],AR protein degradation,AR protein,enhances AR protein degradation
